{
  "source": "PubChem BioAssay AID264",
  "about": "(DTP/NCI, 2004)",
  "system": "nude mice, LX-1 lung xenograft intrarenal, tumor weight T/C",
  "test": "NCI In Vivo Anticancer Drug Screen. Data for tumor model Human Lung LX-1 Xenograft (intrarenal inoculation) in NU/NU Swiss (nude) mice",
  "details": "endpoint: mean tumor weight change, higher = larger tumour",
  "procedure,_shortened": "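In vivo, transplantable tumor; compound vs vehicle arms; tumor size measured; value = T/C.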",
  "key": {"[1]": {"details": "dose: 37.5 mg/kg/injection, schedule: Q04DX003 (sc), vehicle: saline with Tween-80"}, "[2]": {"details": "dose: 600.0 mg/kg/injection, schedule: Q04DX003 (sc), vehicle: saline with Tween-80"}, "[3]": {"details": "dose: 1200.0 mg/kg/injection, schedule: Q04DX003 (sc), vehicle: saline with Tween-80"}, "[4]": {"details": "dose: 150.0 mg/kg/injection, schedule: Q04DX003 (sc), vehicle: saline with Tween-80"}, "[5]": {"details": "dose: 300.0 mg/kg/injection, schedule: Q04DX003 (sc), vehicle: saline with Tween-80"}},
  "note": "Values joined by “and” are separate entries in the source; they are usually repeats but may differ in a detail not shown here. Equal values may be shown once. Records with an inconclusive call do not appear.",
  "data": [
    {"smiles": "CCCCCCCCCCCCCCCC(=O)OCC1OC(n2ccc(N)nc2=O)C(O)C1O", "note": "(stereo unspecified)", "values": [
      {"measurement": "T/C", "setting": "dose: 18.75 mg/kg/injection, schedule: Q04DX003 (sc), vehicle: saline with Tween-80", "result": "55 % of control"},
      {"measurement": "T/C", "setting": "[1]", "result": "43 % of control and 60 % of control"},
      {"measurement": "T/C", "setting": "dose: 200.0 mg/kg/injection, schedule: Q04DX003 (sc), vehicle: saline with Tween-80", "result": "70 % of control"}
    ]},
    {"smiles": "BrC1c2cccc3cccc(c23)C1Br", "note": "(stereo unspecified)", "values": [
      {"measurement": "T/C", "setting": "[2]", "result": "155 % of control"},
      {"measurement": "T/C", "setting": "[3]", "result": "96 % of control"}
    ]},
    {"smiles": "N=C(N)Sc1cc(O)ccc1O", "values": [
      {"measurement": "T/C", "setting": "dose: 75.0 mg/kg/injection, schedule: Q04DX003 (sc), vehicle: saline", "result": "91 % of control"},
      {"measurement": "T/C", "setting": "dose: 150.0 mg/kg/injection, schedule: Q04DX003 (sc), vehicle: saline", "result": "164 % of control"}
    ]},
    {"smiles": "CC(=O)OC1COC(NC(=O)N(CCCl)N=O)C(OC(C)=O)C1OC(C)=O", "note": "(stereo unspecified)", "values": [
      {"measurement": "T/C", "setting": "dose: 1.5 mg/kg/injection, schedule: Q01DX010 (sc), vehicle: saline with Tween-80", "result": "83 % of control"},
      {"measurement": "T/C", "setting": "dose: 3.0 mg/kg/injection, schedule: Q01DX010 (sc), vehicle: saline with Tween-80", "result": "71 % of control"},
      {"measurement": "T/C", "setting": "dose: 6.0 mg/kg/injection, schedule: Q01DX010 (sc), vehicle: saline with Tween-80", "result": "60 % of control"},
      {"measurement": "T/C", "setting": "dose: 12.0 mg/kg/injection, schedule: Q01DX010 (sc), vehicle: saline with Tween-80", "result": "72 % of control"}
    ]},
    {"smiles": "O=S(=O)(c1ccccc1)N1CN2CCN(C2)C1", "values": [
      {"measurement": "T/C", "setting": "[4]", "result": "195 % of control"},
      {"measurement": "T/C", "setting": "[2]", "result": "106 % of control"},
      {"measurement": "T/C", "setting": "[3]", "result": "156 % of control"}
    ]},
    {"smiles": "C(CSC1=NCCN1)CSC1=NCCN1", "values": [
      {"measurement": "T/C", "setting": "dose: 50.0 mg/kg/injection, schedule: Q01DX010 (sc), vehicle: saline", "result": "156 % of control"},
      {"measurement": "T/C", "setting": "dose: 100.0 mg/kg/injection, schedule: Q01DX010 (sc), vehicle: saline", "result": "81 % of control"}
    ]},
    {"smiles": "NC(C(=O)O)c1ccc(CBr)cc1", "note": "(stereo unspecified)", "values": [
      {"measurement": "T/C", "setting": "dose: 300.0 mg/kg/injection, schedule: Q04DX003 (sc), vehicle: acid diluted with saline", "result": "96 % of control"}
    ]},
    {"smiles": "C=C(NC(=O)C(=C)NC(=O)c1csc(C2=NC3c4csc(n4)C4NC(=O)c5csc(n5)C(C(C)(O)C(C)O)NC(=O)C5CSC(=N5)/C(=C/C)NC(=O)C(C(C)O)NC(=O)c5csc(n5)C3(CC2)NC(=O)C(C)NC(=O)C(=C)NC(=O)C(C)NC(=O)C(C(C)CC)NC2C=Cc3c(C(C)O)cc(nc3C2O)C(=O)OC4C)n1)C(N)=O", "note": "(stereo unspecified)", "values": [
      {"measurement": "T/C", "setting": "dose: 200.0 mg/kg/injection, schedule: Q01DX010 (sc), vehicle: Klucel (hydroxypropylcellulose) (HPC)", "result": "90 % of control"},
      {"measurement": "T/C", "setting": "dose: 400.0 mg/kg/injection, schedule: Q01DX010 (sc), vehicle: Klucel (hydroxypropylcellulose) (HPC)", "result": "65 % of control"},
      {"measurement": "T/C", "setting": "dose: 1600.0 mg/kg/injection, schedule: Q01DX010 (sc), vehicle: Klucel (hydroxypropylcellulose) (HPC)", "result": "53 % of control"}
    ]},
    {"smiles": "CCOC(=O)Nc1cc2c(c(N)n1)N=C(c1ccc(Cl)cc1Cl)CN2", "values": [
      {"measurement": "T/C", "setting": "[1]", "result": "82 % of control"},
      {"measurement": "T/C", "setting": "dose: 75.0 mg/kg/injection, schedule: Q04DX003 (sc), vehicle: saline with Tween-80", "result": "76 % of control"},
      {"measurement": "T/C", "setting": "[4]", "result": "64 % of control"},
      {"measurement": "T/C", "setting": "[5]", "result": "66 % of control"}
    ]},
    {"smiles": "NCCc1cc(O)c(O)c(O)c1", "values": [
      {"measurement": "T/C", "setting": "dose: 100.0 mg/kg/injection, schedule: Q04DX003 (sc), vehicle: saline", "result": "83 % of control"},
      {"measurement": "T/C", "setting": "dose: 200.0 mg/kg/injection, schedule: Q04DX003 (sc), vehicle: saline", "result": "96 % of control"},
      {"measurement": "T/C", "setting": "dose: 800.0 mg/kg/injection, schedule: Q04DX003 (sc), vehicle: saline", "result": "91 % of control"}
    ]},
    {"smiles": "CNc1cccnc1/C=N/NC(N)=S", "values": [
      {"measurement": "T/C", "setting": "[5]", "result": "94 % of control"},
      {"measurement": "T/C", "setting": "[2]", "result": "57 % of control"},
      {"measurement": "T/C", "setting": "[3]", "result": "67 % of control"},
      {"measurement": "T/C", "setting": "dose: 2400.0 mg/kg/injection, schedule: Q04DX003 (sc), vehicle: saline with Tween-80", "result": "75 % of control"}
    ]},
    {"smiles": "COc1cc2c(c(OC)c1OC)-c1ccc(OC)c(=O)cc1[C@@H](NC(C)=O)CC2", "values": [
      {"measurement": "T/C", "setting": "dose: 0.25 mg/kg/injection, schedule: Q01DX010 (sc), vehicle: saline", "result": "87 % of control"},
      {"measurement": "T/C", "setting": "dose: 0.5 mg/kg/injection, schedule: Q01DX010 (sc), vehicle: saline", "result": "50 % of control"}
    ]},
    {"smiles": "O=C(O)C1(C(=O)O)CCC1.[NH2-].[NH2-].[Pt+2]", "values": [
      {"measurement": "T/C", "setting": "dose: 6.25 mg/kg/injection, schedule: Q01DX010 (sc), vehicle: dextrose", "result": "73 % of control"},
      {"measurement": "T/C", "setting": "dose: 12.5 mg/kg/injection, schedule: Q01DX010 (sc), vehicle: dextrose", "result": "88 % of control"},
      {"measurement": "T/C", "setting": "dose: 25.0 mg/kg/injection, schedule: Q01DX010 (sc), vehicle: dextrose", "result": "68 % of control"}
    ]}
  ]
}
